Values of other authors, collected in paper PMC10526633 (Structure (London, England : 1993), 2023).

Legend:
SKBr3 cells = conditions: highest tested concentration of 20 μM
HER2 signaling = conditions: highest tested concentration of 20 μM
N62Q mutant cells = conditions: N62Q GRP94 mutant cells

Row | Effect of limited sugar removal on ligand binding to GRP94 (GRP94; EndoH, retains N-acetylglucosamine attached to Asn, ref Yan et al. cell Reports 2020) | Effect of N217A mutation on ligand binding (GRP94; N217A mutant of GRP94) | Effect of complete deglycosylation on GRP94 binding to ligand (GRP94; PNGase F, ref Yan et al. cell Reports 2020) | Compound | Cytotoxicity in SKBr3 cells (SKBr3 cells) | Effect on HER2 signaling in SKBr3 cells (HER2 signaling) | Sensitivity of N62Q mutant cells to ligand (N62Q mutant cells)
1 |  |  |  | COC(=O)c1c(O)cc(O)c(Cl)c1CCc1nccn1Cc1ccccc1 [BnIm, methyl 2-(2-(1-benzyl-1H-imidazol-2-yl)ethyl)-3-chloro-4,6-dihydroxybenzoate] | no cytotoxicity | no effect | 
2 | partially reduces | no effect | abolishes | CC(C)NCCCn1c(Sc2cc(Cl)cc(Cl)c2)nc2c(N)ncnc21 [PU-WS13] |  |  | insensitivity
